By IC50 is commonly meant the concentration at which inhibition is half-maximal. One may read the Km as the concentration of substrate that gives half-maximal velocity.

The values that follow come from patent US20110053884A1, “POTENT COMBINATIONS OF […] DRUGS THAT SELECT FOR THE K65R MUTATION IN THE HIV POLYMERASE” (priority 2007, published 2011).

Each structure is given as a SMILES string. Bounds are passed on as bounds.

The target in data set [1] is wild-type HIV-1 reverse transcriptase (Human immunodeficiency virus type 1 group M subtype B, UniProt P03366). Conditions: cited from earlier work.
A further data set relates to PBM cells. Conditions: cited from earlier work; for Rate of dephosphorylation: in vivo.
The conditions of data set [2]: cited from earlier work.
Data set [3] addresses T1, thymidylate kinase (Homo sapiens, UniProt P23919).
T1 sequence (P23919 1-212): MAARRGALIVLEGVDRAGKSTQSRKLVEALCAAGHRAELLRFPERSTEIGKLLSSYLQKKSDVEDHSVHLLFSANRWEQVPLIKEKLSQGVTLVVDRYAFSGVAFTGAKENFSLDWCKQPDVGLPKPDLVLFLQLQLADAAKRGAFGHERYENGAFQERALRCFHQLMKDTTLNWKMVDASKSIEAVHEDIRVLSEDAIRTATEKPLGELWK
The experiment in a line: Phosphorylation of AZT-MP to AZT-DP by thymidylate kinase. It is filed as biochemical. Conditions: activated PBM cells of HIV-1 infected individuals not previously treated with AZT; SD of log-transformed values 0.89. The text has this: (§1) The initial intracellular phosphorylation step of AZT is catalyzed by thymidine kinase (TK). The most likely enzyme for monophosphorylation to AZT-MP is TK1, which is located primarily in the cytosol of cells in S-phase. […] Since the initial phosphorylation step of AZT to AZT-MP remains approximately linear with dose (5, 22), the Vmax,TK1 was assumed constant between individuals. […] The maximal rates of phosphorylation to AZT-MP and AZT-DP (Vmax,AZT-MP and Vmax,ThymK, respectively) in activated PBM cells were calculated using previously published enzyme kinetics measurements from a cohort of HIV-1 infected individuals who were not previously treated with AZT (36). […] The calculation assumed a volume of 0.21 μl/10^6, corresponding to a protein content of 0.12 mg (3, 33). The final phosphorylation step to active AZT-TP is catalyzed by nucleoside diphosphate kinase and is not rate limiting under physiological conditions. […] Therefore, the conversion rate of AZT-DP to AZT-TP (KDP,TP) was also assumed to be 0.28 h^−1. The assumed distributions for the rate constants describing the cellular phosphorylation and dephosphorylation of AZT are contained in Table 2.

For data set [4] the following is noted: Day 20; rank order of treatment groups (mg bid). How it is done: Twenty-four subjects were enrolled [placebo (n=2), AZT 200 mg (n=2), AZT 300 mg (n=2), DAPD 500 mg (n=6), DAPD/AZT 200 mg (n=6), and DAPD/AZT 300 mg (n=6)] and treated for 10 days. Hematological indices including hemoglobin (g/dl) and mean corpuscular volume (MCV, femtoliters) were measured at Screening, Day 1 prior to receiving treatment and Days 5, 10 and 20.

For data set [5] the following is noted: single dose, intravenous and oral, HIV-1 infected individuals; cited from earlier work.
Data set [6] has as its target T2, TK1 (Homo sapiens, UniProt P04183).
T2 sequence (P04183 1-234): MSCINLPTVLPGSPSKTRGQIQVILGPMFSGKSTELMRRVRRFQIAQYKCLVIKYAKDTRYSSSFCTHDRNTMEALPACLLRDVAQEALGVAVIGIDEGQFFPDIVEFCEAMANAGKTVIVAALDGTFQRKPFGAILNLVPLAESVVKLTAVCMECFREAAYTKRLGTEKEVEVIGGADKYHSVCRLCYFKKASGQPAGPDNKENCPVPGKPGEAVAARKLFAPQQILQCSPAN
To be noted: concentration at 50% of maximal metabolism rate; read-out: Km versus TK1; cited from earlier work.

A further data set has as its system HIV-1. Conditions: incubation up to week 28; cited from earlier work.
Data set [7] deals with T1, thymidylate kinase. To be noted: cited from earlier work; for Km: substrate AZT-MP, read-out: Km versus thymidylate kinase (Km,ThmK).
Data set [8] deals with T2, TK1. Briefly: Phosphorylation of AZT to AZT-MP by thymidine kinase. It is filed as biochemical. Conditions: activated PBM cells.
Source text: as §1

In the next data set the test system is HIV. Briefly: Randomized double blind placebo controlled study, HIV RNA viral load over 10 days of treatment. It is filed as in vivo, human. How it is done: (§2) Subjects with HIV RNA viral load (VL)≧5,000 copies/mL were enrolled and randomized 1:1:1 to DAPD 500 mg bid: DAPD 500 mg with AZT 300 mg bid: DAPD 500 mg with AZT 200 mg bid for 10 days. In each arm, subjects were randomized 3:1 to DAPD: placebo. VL was determined daily.

Data set [9] can be described thus: Tolerability in the DAPD/AZT clinical study. Conditions: 10 days of treatment, HIV-infected subjects. It is filed as in vivo, human. The method, then: as §2

For `Cc1cn([C@H]2C[C@H](N=[N+]=[N-])[C@@H](CO[P@](=O)(O)O[P@](=O)(O)OP(=O)(O)O)O2)c(=O)[nH]c1=O` [AZT-TP, zidovudine-triphosphate], the IC50 in data set [1] is about 0.035 µM. The Rate of dephosphorylation in the data set on PBM cells was 0.28 h⁻¹.

For the compound `Cc1cn([C@H]2C[C@H](N=[N+]=[N-])[C@@H](COP(=O)(O)OP(=O)(O)O)O2)c(=O)[nH]c1=O` [AZT-DP, AZT-diphosphate], in the data set on PBM cells, the Rate of dephosphorylation was 0.28 h⁻¹.

As to `C[C@H](Cn1cnc2c(N)ncnc21)OCP(=O)(O)O` [tenofovir, 9-R-2-phosphonomethoxypropyl adenine], the Cellular triphosphate half-life in [2] was over 60 h.

Turning to `Cc1cn([C@H]2C[C@H](N=[N+]=[N-])[C@@H](CO)O2)c(=O)[nH]c1=O` [AZT, 3′-azido-3′-deoxythymidine], the “Vmax,ThymK, median” value at thymidylate kinase [3] is recorded as 0.13 μmol/l per hr. Further, the “Trend in decrease in hemoglobin from Baseline” value in data set [4] was “DAPD/AZT 300≧AZT 300≧DAPD/AZT 200>AZT 200>DAPD>placebo”. The “Trend in increase in MCV from Baseline” value in data set [4] was “DAPD/AZT 300>AZT 300>DAPD/AZT 200>AZT 200>placebo>DAPD”. For the same compound, the “Systemic clearance (Cl)” value in [5] was 18.3 to 25 mL/min/kg. The “Volume of distribution (Vss)” value in [5] was 1.3 to 1.4 L/kg. Moreover, the Km is 0.6 µM on TK1 [6] and 12 µM on thymidylate kinase [7]. The “Drug resistant mutations selected in vitro” value in the data set with HIV-1 was “a mixture of K70K/R mutations at week 25”. Moreover, in the data set with PBM cells, the “Accumulation of AZT nucleotides, stimulated versus resting PBM cells” value was 60 to 150 times. Further, the Rate of dephosphorylation in the data set with PBM cells was 0.28 h⁻¹. For the same compound, on TK1 [8], the “Vmax,TK1, maximal rate of phosphorylation to AZT-MP” value is 0.86 μmol/l per hr. Besides, the “Mean VL ± SD from baseline” value with HIV (Day 9, AZT 200 mg bid alone) is −0.80 log10 copies/mL; in the data set on HIV (Day 9, AZT 300 mg bid alone), −0.35 log10 copies/mL; in the data set on HIV (Day 10, AZT 200 mg bid alone), −0.65 log10 copies/mL; in the data set on HIV (Day 10, AZT 300 mg bid alone), −0.45 log10 copies/mL; in the data set with HIV (Day 11, AZT 200 mg bid alone), −0.70 log10 copies/mL; with HIV (Day 11, AZT 300 mg bid alone) it was −0.60 log10 copies/mL.

As for `Cc1cn([C@H]2C[C@H](N=[N+]=[N-])[C@@H](COP(=O)(O)O)O2)c(=O)[nH]c1=O` [AZT-MP, zidovudine-monophosphate], the “Vmax,ThymK, median” value at thymidylate kinase [3] amounted to 0.13 μmol/l per hr. The Km at thymidylate kinase [7] was 12 µM. The “Vmax,AZT-MP as share of the Vmax versus thymidine-MP” value on thymidylate kinase [7] (thymidylate kinase) was 0.3%. Also, the Rate of dephosphorylation in the data set on PBM cells is 0.28 h⁻¹.

Regarding `Nc1nc2c(ncn2[C@H]2CO[C@@H](CO)O2)c(=O)[nH]1` [DXG, beta-D-(2R,4R)-1,3-dioxolane guanosine], the Cellular triphosphate half-life in data set [2] is about 9.5 h.

Consider `Nc1nc(N)c2ncn([C@H]3CO[C@@H](CO)O3)c2n1` [DAPD, (−)-β-D-2,6-diaminopurine dioxolane], for which the Tolerability entry in [9] is “well tolerated”. The “Trend in decrease in hemoglobin from Baseline” value in data set [4] is given as “DAPD/AZT 300≧AZT 300≧DAPD/AZT 200>AZT 200>DAPD>placebo”. In addition, the “Trend in increase in MCV from Baseline” value in [4] is listed as “DAPD/AZT 300>AZT 300>DAPD/AZT 200>AZT 200>placebo>DAPD”. The “Drug resistant mutations selected in vitro” value with HIV-1 is “a mixture of K65R and L74V at week 20”. The “Mean VL ± SD from baseline” value was −0.83 ± 0.61 log10 copies/mL in the data set with HIV (Day 9, DAPD 500 mg bid alone); −1.07 ± 0.80 log10 copies/mL in the data set with HIV (Day 10, DAPD 500 mg bid alone); −1.03 ± 0.59 log10 copies/mL in the data set with HIV (Day 11, DAPD 500 mg bid alone).
